Assays:
[1] = molecular target: T1, CYSLTR1 (Homo sapiens, UniProt Q9Y271); assay: NanoBRET screen HiBiT-CYSLTR1 in HEK293; assay type: binding; conditions: CYSLTR1
T1 construct: purchased Promega (in-house HiBiT-GPCR construct library, NanoBRET)
T1 sequence (Q9Y271 1-337): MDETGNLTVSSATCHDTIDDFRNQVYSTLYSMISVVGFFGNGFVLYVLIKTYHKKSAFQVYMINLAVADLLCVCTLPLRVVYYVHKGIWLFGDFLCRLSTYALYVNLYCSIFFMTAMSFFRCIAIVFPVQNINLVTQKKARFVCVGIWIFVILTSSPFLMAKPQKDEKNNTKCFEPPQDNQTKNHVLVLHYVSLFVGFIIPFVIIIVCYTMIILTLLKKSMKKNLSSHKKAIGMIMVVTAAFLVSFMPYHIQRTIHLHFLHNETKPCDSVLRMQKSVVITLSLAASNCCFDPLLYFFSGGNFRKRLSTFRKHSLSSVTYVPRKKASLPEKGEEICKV
Method: (§1) Each tracer candidate was screened across the entire library of HiBiT-GPCR constructs using NanoBRET as the detection modality. As depicted in Figure 4A, the specificity of interactions was evaluated through decrease in BRET due to competitive displacement of a bound tracer by excess parental compound. Each tracer was analyzed for binding to each HiBiT-GPCR fusion in the absence and in the presence of competing parental compound. Briefly, HEK293 cells were transfected with HiBiT-GPCR constructs diluted into promoterless DNA to reduce expression and maximize translocation to the cell surface. Each tracer candidate was then screened at concentrations of 1 μM and 0.1 μM across cells expressing these fusions. Cells were treated for 1.5 h with tracer either alone or in the presence of 20 μM competing parental compound (i.e., control). BRET was measured upon addition of purified LgBiT and subsequent complementation with HiBiT genetically fused to a GPCR. The specificity of interactions was assessed through a decrease in BRET signal due to competitive displacement of the bound tracer. To further gauge the robustness of these interactions, the fold response over the control (i.e., BRETtracer/BRETcontrol) was calculated. We chose a 1.5-fold response, which translates to ≥7-fold signal over noise as the minimal threshold required to score an interaction as positive.
(§2) HiBiT-GPCR DNA constructs were diluted in 10 mM Tris pH 8 to a final concentration of 0.01 μg/μL, arrayed in 96-well plates and stored at −20 °C. For transfection, HEK293 cells were suspended in Opti-MEM (without phenol red) supplemented with 2% fetal bovine serum (Seradigm) and 100 units/mL penicillin–streptomycin (Gibco) at a final concentration of 220,000 cells/mL and dispensed into white 96-well plates at 90 μL/well. Subsequent transfections and screens were carried using an Agilent Bravo Automated Liquid Handling Platform. First, the 96-well HiBiT DNA arrays were diluted 25-fold in Opti-MEM (without serum or phenol red) to a final concentration of 0.0004 μg/μL and 20 μL of the diluted DNAs were transferred into new 96-well plates. Next, promoterless carrier DNA (1 μg/μL) was diluted 25-fold (0.04 μg/μL) and then dispensed into the diluted arrays at 20 μL/well. Following brief mixing, Viafect transfection reagent (Promega) diluted 16-fold into Opti-MEM was dispensed into the plates at 40 μL/well. After mixing by pipetting, plates were incubated for 10 min on the pipetting station deck. The DNA-transfection reagent complexes were then added to plates containing cells. To facilitate the screen, 10 μL of DNA-transfection reagent complexes were added in duplicates to the top 4 and bottom 4 rows, resulting in two identical 48-well arrays per plate. Plates with transfected cells were incubated for 18–20 h at 37 °C/5% CO2. A screen of each tracer across the entire library using two different concentrations requires duplicate plates of transfected cells. Depending on the number of tracers being screened, transfections can be scaled up using the same ratios. The next day, for each tracer, four 20× screening solutions in tracer dilution buffer (Promega) were prepared: two duplicates at final concentration of 20 μM and two duplicates at a final concentration of 2 μM. […] The four resulting solutions were diluted 4-fold in Opti-MEM without serum or phenol red to generate 5× solutions (5 µM and 0.5 µM tracer +/− 100 μM competing compound). To screen the library, a BioTek MultiFlo FX liquid dispenser was used to dispense 22.5 µL of tracer solution to the top 4 rows and 22.5 µL tracer + competing compound solution to the 4 bottom rows. Plates were briefly mixed on an orbital shaker and incubated for 1.5 h at room temperature. […] Plates were briefly mixed on an orbital shaker and incubated for 15 min to allow complementation.

[2] = molecular target: T2, ADRA1A (Homo sapiens, UniProt P35348); assay: NanoBRET screen HiBiT-ADRA1A in HEK293; assay type: binding
T2 construct: purchased Promega (in-house HiBiT-GPCR construct library, NanoBRET)
T2 sequence (P35348 1-466): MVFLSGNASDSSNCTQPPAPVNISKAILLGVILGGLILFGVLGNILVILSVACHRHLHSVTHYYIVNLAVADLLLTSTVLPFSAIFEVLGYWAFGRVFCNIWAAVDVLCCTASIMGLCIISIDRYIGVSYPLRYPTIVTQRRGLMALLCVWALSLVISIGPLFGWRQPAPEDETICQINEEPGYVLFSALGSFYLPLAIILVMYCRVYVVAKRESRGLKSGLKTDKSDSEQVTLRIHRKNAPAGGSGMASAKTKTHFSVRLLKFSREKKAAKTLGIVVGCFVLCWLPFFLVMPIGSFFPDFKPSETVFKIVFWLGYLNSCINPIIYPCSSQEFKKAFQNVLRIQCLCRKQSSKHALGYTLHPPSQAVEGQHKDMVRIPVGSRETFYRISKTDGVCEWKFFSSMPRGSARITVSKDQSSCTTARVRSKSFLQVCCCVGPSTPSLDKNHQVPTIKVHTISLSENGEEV
Method: as §1, §2

Compound | NanoBRET Fold Response ([1]; tracer 0.1μM) | NanoBRET Fold Response ([1]; tracer 1μM) | NanoBRET Fold Response ([2]; ADRA1A, tracer 0.1μM) | NanoBRET Fold Response ([2]; ADRA1A, tracer 1μM) | NanoBRET Fold Response ([2]; tracer at 0.1μM, listed as amitriptyline-b-2-NB590) | NanoBRET Fold Response ([2]; tracer at 1μM, listed as amitriptyline-b-2-NB590) | NanoBRET Fold Response ([1]; 0.1μM tracer) | NanoBRET Fold Response ([1]; 1μM tracer) | NanoBRET Fold Response ([2]; ADRA1A, 0.1μM tracer) | NanoBRET Fold Response ([2]; ADRA1A, 1μM tracer)
O=C(CCc1ccc2n1[B-](F)(F)[N+]1=C(c3ccc[nH]3)C=CC1=C2)NCCOCCOCCNC(=O)OCCOCCN1CCN(C2=Nc3ccccc3Sc3ccccc32)CC1 [Quetiapine-a-2-NB590] | 0.90 | 1.08 | 3.24 | 3.51 | – | – | – | – | – | –
Cc1cc2c(s1)Nc1ccccc1N=C2N1CCN(CCCNC(=O)CCOCCOCCOCCOCCNC(=O)CCc2ccc3n2[B-](F)(F)[N+]2=C(c4ccc[nH]4)C=CC2=C3)CC1 [Olanzapine-a-2-NB590] | 1.00 | 1.06 | 2.86 | 3.58 | – | – | – | – | – | –
CN(C)CCC=C1c2ccccc2CCc2ccc(C(=O)NCCNC(=O)CCOCCOCCOCCOCCNC(=O)CCc3ccc4n3[B-](F)(F)[N+]3=C(c5ccc[nH]5)C=CC3=C4)cc21 [Amitriptyline-b-2-NB590] | 0.94 | 1.01 | – | – | 4.73 | 2.23 | – | – | – | –
O=C(CCOCCOCCOCCOCCNC(=O)CCc1ccc2n1[B-](F)(F)[N+]1=C(c3ccc[nH]3)C=CC1=C2)NCCCN1CCN(C2=Nc3cc(Cl)ccc3Nc3ccccc32)CC1 [Clozapine-a-2-NB590] | – | – | – | – | – | – | 0.98 | 1.11 | 3.90 | 3.21
Cc1nc2n(c(=O)c1CCN1CCC(c3noc4cc(F)ccc34)CC1)CCCC2OC(=O)NCCOCCOCCOCCOCCNC(=O)CCc1ccc2n1[B-](F)(F)[N+]1=C(c3ccc[nH]3)C=CC1=C2 (centres unmarked) [Risperidone-2-NB590] | 0.97 | 0.94 | 4.86 | 3.45 | – | – | – | – | – | –

— paper PMC8151276, “An Integrated Approach toward NanoBRET Tracers for Analysis of GPCR Ligand Engagement” (Molecules, 2021)
